The pEC50 is the negative decadic logarithm of the EC50, by convention in mol/L.

pEC50: −log10 of the molar value.

For one experiment, the system named is RSV A2 strain. Briefly: In vitro CPE (CytoPathic Effect) inhibition effect evaluation test, RSV type A. It is filed as cell-based. Particulars: human respiratory syncytial virus; inhibitory effect against RSV type A (RSV A2 strain), HEp-2 cells, CPE inhibition; read-out: EC50. The essentials: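 EC50 is the concentration giving 50% inhibition of virus-induced cytopathic effect, fitted by nonlinear regression from CellTiter-Glo 2.0 viability. Compounds in 3-fold series were co-incubated at 37 °C with HEp-2 cells and RSV: A2 strain for 4 days, B (Wash/18537) for 5 days; uninfected wells served as control.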
(In general: Protection from cytopathic effect is a common read-out in antiviral testing.)
As for `O=C(NC1(C(=O)O)C2CC3CC(C2)CC1C3)c1ccc(-c2cn([C@H]3CC[C@@H](C(F)(F)F)CC3)c3cc(OC4CCN(c5ncccn5)CC4)ccc23)nc1C(F)(F)F` (some centres unmarked) [Compound I-285], the pEC50 is above 8.00.

`O=C(NC1(C(=O)O)C2CC3CC(C2)CC1C3)c1ccc(-c2cn([C@H]3CC[C@H](C(F)(F)F)CC3)c3cc(OC4CCN(c5ncccn5)CC4)ccc23)nc1C(F)(F)F` (some centres unmarked) [Compound I-286]: the pEC50 was 7.00 to 8.00.

In the case of `O=C(NC1(C(=O)O)C2CC3CC(C2)CC1C3)c1cnc(N2CC3(CCOCC3)c3c2cc(F)c(F)c3F)nc1C(F)(F)F` (centres unmarked) [Compound I-287], the pEC50 was above 8.00.

In the case of `O=C(NC1(C(=O)O)C2CC3CC(C2)CC1C3)c1ccc(-c2cn(C3CCCC3)c3cc(OC4CCN(c5ncccn5)CC4)ccc23)nc1C(F)(F)F` (centres unmarked) [Compound I-289], the pEC50 was above 8.00.

As for `O=C(NC1(C(=O)O)C2CC3CC(C2)CC1C3)c1ccc(-c2cn(-c3ccc(F)cn3)c3cc(OC4CCN(c5ncccn5)CC4)ccc23)nc1C(F)(F)F` (centres unmarked) [Compound I-290], the pEC50 is above 8.00.

As to `CC(C)(C)C[C@@H](NC(=O)c1cnc(-c2cn(C3CCC(F)(F)CC3)c3cc(OC4CCN(c5ncccn5)CC4)ccc23)nc1C(F)(F)F)C(=O)O` [Compound I-302], the pEC50 is above 8.00.

As to `Cn1ccc(CCOc2ccc3c(-c4ncc(C(=O)NC5(C(=O)O)C6CC7CC(C6)CC5C7)c(C(F)(F)F)n4)cn(C4CCC(F)(F)CC4)c3c2)n1` (centres unmarked) [Compound I-366], the pEC50 was above 8.00.

`O=C(NC1(C(=O)O)C2CC3CC(C2)CC1C3)c1cnc(-c2cn(C3CCC(F)(F)CC3)c3cc(OC4CCC5(CC4)CN(c4ncccn4)C5)ccc23)nc1C(F)(F)F` (centres unmarked) [Compound I-369]: the pEC50 is above 8.00.

Regarding `O=C(NC1(C(=O)O)C2CC3CC(C2)CC1C3)c1cnc(-c2cn(C3CCC(F)(F)CC3)c3cc(OC4CCN(c5ncccn5)CC4F)ccc23)nc1C(F)(F)F` (centres unmarked) [Compound I-371], the pEC50 was above 8.00.

On to `O=C(NC1(C(=O)O)C2CC3CC(C2)CC1C3)c1cnc(-c2cn(C3CCC(F)(F)CC3)c3cc(OCCNc4ncccn4)ccc23)nc1C(F)(F)F` (centres unmarked) [Compound I-372], for which the pEC50 was above 8.00.

Staying with this experiment, now noted: inhibitory effect against RSV type A (RSV A2 strain), HEp-2 cells, CPE inhibition; read-out: EC50.
On to `O=C(NC1(C(=O)O)C2CC3CC(C2)CC1C3)c1cnc(N2CC3(CCOCC3)c3cc(Cc4ccccc4)ccc32)nc1C(F)(F)F` (centres unmarked) [Compound I-293], for which the pEC50 is 7.00 to 8.00.

As for `CC(F)(F)c1nc(N2CC3(CCOCC3)c3cc(OC4CCN(c5ncccn5)CC4)ccc32)ncc1C(=O)NC1(C(=O)O)C2CC3CC(C2)CC1C3` (centres unmarked) [Compound I-294], the pEC50 is above 8.00.

Regarding `COc1cccc(-n2cc(-c3ccc(C(=O)NC4(C(=O)O)C5CC6CC(C5)CC4C6)c(C(F)(F)F)n3)c3ccc(OC4CCN(c5ncccn5)CC4)cc32)n1` (centres unmarked) [Compound I-296], the pEC50 is above 8.00.

As to `O=C(NC1(C(=O)O)C2CC3CC(C2)CC1C3)c1cnc(N2CC3(CCOCC3)c3cc4c(cc32)OC(F)(F)O4)nc1C(F)(F)F` (centres unmarked) [Compound I-299], the pEC50 was 7.00 to 8.00.

Turning to `O=C(NC1(C(=O)O)C2CC3CC(C2)CC1C3)c1ccc(-c2cn(-c3ccc(C(F)(F)F)cn3)c3cc(OC4CCN(c5ncccn5)CC4)ccc23)nc1C(F)(F)F` (centres unmarked) [Compound I-303], the pEC50 was above 8.00.

On to `O=C(NC1(C(=O)O)C2CC3CC(C2)CC1C3)c1cnc(N2CC3(CCOCC3)c3cc(C(F)(F)F)ccc32)nc1C(F)(F)F` (centres unmarked) [Compound I-307], for which the pEC50 is above 8.00.

Take `O=C(NC1(C(=O)O)C2CC3CC(C2)CC1C3)c1ccc(-c2cn(-c3ncccc3F)c3cc(OC4CCN(c5ncccn5)CC4)ccc23)nc1C(F)(F)F` (centres unmarked) [Compound I-310]: the pEC50 was above 8.00.

Regarding `Cc1cccnc1-n1cc(-c2ccc(C(=O)NC3(C(=O)O)C4CC5CC(C4)CC3C5)c(C(F)(F)F)n2)c2ccc(OC3CCN(c4ncccn4)CC3)cc21` (centres unmarked) [Compound I-311], the pEC50 is above 8.00.

On to `O=C(NC1(C(=O)O)C2CC3CC(C2)CC1C3)c1ccc(-c2cn(-c3ccncc3F)c3cc(OC4CCN(c5ncccn5)CC4)ccc23)nc1C(F)(F)F` (centres unmarked) [Compound I-312], for which the pEC50 is above 8.00.

Take `O=C(NC1(C(=O)O)C2CC3CC(C2)CC1C3)c1ccc(-c2cn(-c3ccccc3F)c3cc(OC4CCN(c5ncccn5)CC4)ccc23)nc1C(F)(F)F` (centres unmarked) [Compound I-313]: the pEC50 is above 8.00.

As for `Cc1ccccc1-n1cc(-c2ccc(C(=O)NC3(C(=O)O)C4CC5CC(C4)CC3C5)c(C(F)(F)F)n2)c2ccc(OC3CCN(c4ncccn4)CC3)cc21` (centres unmarked) [Compound I-314], the pEC50 was above 8.00.

On to `O=C(NC1(C(=O)O)C2CC3CC(C2)CC1C3)c1ccc(-c2cn(-c3ncccc3C(F)(F)F)c3cc(OC4CCN(c5ncccn5)CC4)ccc23)nc1C(F)(F)F` (centres unmarked) [Compound I-316], for which the pEC50 is above 8.00.

For the compound `Cc1cnccc1-n1cc(-c2ccc(C(=O)NC3(C(=O)O)C4CC5CC(C4)CC3C5)c(C(F)(F)F)n2)c2ccc(OC3CCN(c4ncccn4)CC3)cc21` (centres unmarked) [Compound I-317], the pEC50 was above 8.00.

As to `COc1ccccc1-n1cc(-c2ccc(C(=O)NC3(C(=O)O)C4CC5CC(C4)CC3C5)c(C(F)(F)F)n2)c2ccc(OC3CCN(c4ncccn4)CC3)cc21` (centres unmarked) [Compound I-318], the pEC50 is above 8.00.

With `O=C(Nc1ccc2c(c1)C1(CCOCC1)CN2c1ncc(C(=O)NC2(C(=O)O)C3CC4CC(C3)CC2C4)c(C(F)(F)F)n1)c1ccccc1` (centres unmarked) [Compound I-323], the pEC50 was above 8.00.

In the case of `COc1cccnc1-n1cc(-c2ccc(C(=O)NC3(C(=O)O)C4CC5CC(C4)CC3C5)c(C(F)(F)F)n2)c2ccc(OC3CCN(c4ncccn4)CC3)cc21` (centres unmarked) [Compound I-325], the pEC50 was above 8.00.

Turning to `O=C(NC1(C(=O)O)C2CC3CC(C2)CC1C3)c1ccc(-c2cn(-c3ccccc3C(F)(F)F)c3cc(OC4CCN(c5ncccn5)CC4)ccc23)nc1C(F)(F)F` (centres unmarked) [Compound I-327], the negative-log EC50 (pEC50) is above 8.00.

As to `Cn1cc(-n2cc(-c3ccc(C(=O)NC4(C(=O)O)C5CC6CC(C5)CC4C6)c(C(F)(F)F)n3)c3ccc(OC4CCN(c5ncccn5)CC4)cc32)cn1` (centres unmarked) [Compound I-328], the pEC50 was above 8.00.

On to `O=C(NC1(C(=O)O)C2CC3CC(C2)CC1C3)c1ccc(-c2cn(-c3ccncc3C(F)(F)F)c3cc(OC4CCN(c5ncccn5)CC4)ccc23)nc1C(F)(F)F` (centres unmarked) [Compound I-329], for which the pEC50 was above 8.00.

Take `O=C(NC1(C(=O)O)C2CC3CC(C2)CC1C3)c1cnc(N2CC3(CCOCC3)c3cc(OC4CCN(c5ncccn5)CC4)cc(F)c32)nc1C(F)(F)F` (centres unmarked) [Compound I-332]: the pEC50 is above 8.00.

On to `Cn1ccc(-n2cc(-c3ccc(C(=O)NC4(C(=O)O)C5CC6CC(C5)CC4C6)c(C(F)(F)F)n3)c3ccc(OC4CCN(c5ncccn5)CC4)cc32)c1` (centres unmarked) [Compound I-334], for which the pEC50 was above 8.00.

As for `N#Cc1cccc(-n2cc(-c3ccc(C(=O)NC4(C(=O)O)C5CC6CC(C5)CC4C6)c(C(F)(F)F)n3)c3ccc(OC4CCN(c5ncccn5)CC4)cc32)c1` (centres unmarked) [Compound I-336], the pEC50 was above 8.00.

With `N#Cc1ccc(-n2cc(-c3ccc(C(=O)NC4(C(=O)O)C5CC6CC(C5)CC4C6)c(C(F)(F)F)n3)c3ccc(OC4CCN(c5ncccn5)CC4)cc32)cc1` (centres unmarked) [Compound I-337], the pEC50 was above 8.00.

Turning to `N#Cc1cccnc1-n1cc(-c2ccc(C(=O)NC3(C(=O)O)C4CC5CC(C4)CC3C5)c(C(F)(F)F)n2)c2ccc(OC3CCN(c4ncccn4)CC3)cc21` (centres unmarked) [Compound I-338], the negative-log EC50 (pEC50) is above 8.00.

Consider `N#Cc1cccc(-n2cc(-c3ccc(C(=O)NC4(C(=O)O)C5CC6CC(C5)CC4C6)c(C(F)(F)F)n3)c3ccc(OC4CCN(c5ncccn5)CC4)cc32)n1` (centres unmarked) [Compound I-339], for which the pEC50 was above 8.00.

For `N#Cc1ccc(-n2cc(-c3ccc(C(=O)NC4(C(=O)O)C5CC6CC(C5)CC4C6)c(C(F)(F)F)n3)c3ccc(OC4CCN(c5ncccn5)CC4)cc32)nc1` (centres unmarked) [Compound I-340], the pEC50 was above 8.00.

On to `O=C(NC1(C(=O)O)C2CC3CC(C2)CC1C3)c1cnc(N2CC3(CCOCC3)c3cc(NS(=O)(=O)c4ccccc4)ccc32)nc1C(F)(F)F` (centres unmarked) [Compound I-342], for which the pEC50 is 5.30 to 7.00.

`CN(C(=O)c1ccccc1)c1ccc2c(c1)C1(CCOCC1)CN2c1ncc(C(=O)NC2(C(=O)O)C3CC4CC(C3)CC2C4)c(C(F)(F)F)n1` (centres unmarked) [Compound I-343]: the pEC50 was 7.00 to 8.00.

With `CN(c1ccc2c(c1)C1(CCOCC1)CN2c1ncc(C(=O)NC2(C(=O)O)C3CC4CC(C3)CC2C4)c(C(F)(F)F)n1)S(=O)(=O)c1ccccc1` (centres unmarked) [Compound I-344], the pEC50 is 7.00 to 8.00.

Consider `O=C(NC1(C(=O)O)C2CC3CC(C2)CC1C3)c1cnc(N2CC3(CCOCC3)c3cc(Br)ccc32)nc1C(F)(F)F` (centres unmarked) [Compound I-347], for which the pEC50 is above 8.00.

For the compound `O=C(NC1(C(=O)O)C2CC3CC(C2)CC1C3)c1cnc(N2CC3(CCOCC3)c3cc(Oc4ccccc4)ccc32)nc1C(F)(F)F` (centres unmarked) [Compound I-348], the pEC50 is above 8.00.

On to `O=C(NC1(C(=O)O)C2CC3CC(C2)CC1C3)c1cnc(N2CC3(CCOCC3)c3cc(C4=CCCN(c5ncccn5)C4)ccc32)nc1C(F)(F)F` (centres unmarked) [Compound I-349], for which the pEC50 was above 8.00.

With `Cn1cc2c(n1)CCN(Cc1ccc3c(c1)C1(CCOCC1)CN3c1ncc(C(=O)NC3(C(=O)O)C4CC5CC(C4)CC3C5)c(C(F)(F)F)n1)C2` (centres unmarked) [Compound I-351], the pEC50 is 7.00 to 8.00.

For `O=C(NC1(C(=O)O)C2CC3CC(C2)CC1C3)c1cnc(N2CC3(CCOCC3)c3cc(CN4CCC5(CC4)COC5)ccc32)nc1C(F)(F)F` (centres unmarked) [Compound I-352], the pEC50 was 7.00 to 8.00.

For the compound `O=C(NC1(C(=O)O)C2CC3CC(C2)CC1C3)c1ccc(-c2cn(C3=CCC(F)(F)CC3)c3cc(OC4CCN(c5ncc(F)cn5)CC4)ccc23)nc1C(F)(F)F` (centres unmarked) [Compound I-359], the negative logarithm of the EC50 (pEC50) is above 8.00.

In the case of `O=C(NC1(C(=O)O)C2CC3CC(C2)CC1C3)c1cnc(N2CC3(CCOCC3)c3cc(CN4CCN(c5ncccn5)CC4)ccc32)nc1C(F)(F)F` (centres unmarked) [Compound I-360], the pEC50 is above 8.00.

In the case of `O=C(NC1(C(=O)O)C2CC3CC(C2)CC1C3)c1cnc(N2CC3(CCS(=O)(=O)CC3)c3cc(OC4CCN(c5ncc(F)cn5)CC4)ccc32)nc1C(F)(F)F` (centres unmarked) [Compound I-365], the pEC50 was above 8.00.

(Values after patent US12528790B2, “Amide derivative having antiviral activity” (Shionogi & Co., Ltd., priority 2020, dated 2026).)
